Consider two compounds from patent US12011517B2, “Air freshening product” (The Procter & Gamble Company, priority 2019, dated 2024).

As to `CCCCCCC/C=C/C=O` [(E)-2-Decen-1-al], the “Average Vapor Pressure (Torr) at 25 degrees Celsius” value was found to be 0.0674 Torr.
Regarding `CCC/C=C/C=O` [(E)-2-Hexen-1-al], the “Average Vapor Pressure (Torr) at 25 degrees Celsius” value was determined as 10.7 Torr.
